From patent US8778964B2, “Hydroxy-substituted imidazo[1,2-a]-pyridinecarboxamides and their use” (Bayer Pharma Aktiengesellschaft, priority 2012, dated 2014)
Counter-ions that a name gives are not always drawn.

System: recombinant guanylate cyclase reporter cell line
Assay: Action on recombinant guanylate cyclase reporter cell line (MEC)
Assay type: cell-based
Details: in some cases mean values obtained from individual determinations
In short: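 Cell-based reporter assay with recombinant guanylate cyclase expressed in a reporter cell line, per a published method. Activity reported as minimal effective concentration (MEC), in some cases as the mean of individual determinations.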

SMILES | minimal effective concentration [µM]
Cc1nc2c(OCc3c(F)cccc3F)cccn2c1C(=O)NC(CO)c1ccc(S(C)(=O)=O)cc1 (racemic) [Example 120, rac-8-[(2,6-difluorobenzyl)oxy]-N-{2-hydroxy-1-[4-(methylsulphonyl)phenyl]ethyl}-2-methylimidazo[1,2-a]pyridine-3-carboxamide] | 1
CCCC[C@H](CO)NC(=O)c1c(C)nc2c(OCc3c(F)cccc3F)cc(F)cn12 [Example 132, 8-[(2,6-difluorobenzyl)oxy]-6-fluoro-N-[(2R)-1-hydroxyhexan-2-yl]-2-methylimidazo[1,2-a]pyridine-3-carboxamide] | 0.03
CCCC[C@H](CO)NC(=O)c1c(C)nc2c(OCc3c(F)cccc3F)cc(Br)cn12 [Example 65, 6-bromo-8-[(2,6-difluorobenzyl)oxy]-N-[(2R)-1-hydroxyhexan-2-yl]-2-methylimidazo[1,2-a]pyridine-3-carboxamide] | 0.03
Cc1nc2c(OCC3CCCCC3)cccn2c1C(=O)NC(C)CO (stereo not drawn) [Example 84, 8-(cyclohexylmethoxy)-N-(1-hydroxypropan-2-yl)-2-methylimidazo[1,2-a]pyridine-3-carboxamide] | 0.3
Cc1nc2c(OCc3c(F)cccc3F)cccn2c1C(=O)NC(CO)CC(F)(F)F (racemic) [Example 100, rac-8-[(2,6-Difluorobenzyl)oxy]-2-methyl-N-(4,4,4-trifluoro-1-hydroxybutan-2-yl)imidazo[1,2-a]-pyridine-3-carboxamide trifluoroacetate] | 0.03
Cc1nc2c(OCC3CCCCC3)cccn2c1C(=O)NC(CO)CO [Example 85, 8-(cyclohexylmethoxy)-N-(1,3-dihydroxypropan-2-yl)-2-methylimidazo[1,2-a]pyridine-3-carboxamide] | 0.38
Cc1nc2c(OCC3CCCCC3)cccn2c1C(=O)NC1(CO)CCCC1 [Example 92, 8-(cyclohexylmethoxy)-N-[1-(hydroxymethyl)cyclopentyl]-2-methylimidazo[1,2-a]pyridine-3-carboxamide] | 1
Cc1nc2c(OCc3c(F)cccc3F)cccn2c1C(=O)NC(CO)c1cccnc1 (racemic) [Example 124, rac-8-[(2,6-Difluorobenzyl)oxy]-N-[2-hydroxy-1-(pyridin-3-yl)ethyl]-2-methylimidazo[1,2-a]-pyridine-3-carboxamide] | 0.3
Cc1nc2c(OCc3ccccc3)cccn2c1C(=O)NCCC1(O)CCCC1 [Example 48, 8-(benzyloxy)-N-[2-(1-hydroxycyclopentyl)ethyl]-2-methylimidazo[1,2-a]pyridine-3-carboxamide] | 1
Cc1nc2c(OCc3c(F)cccc3F)cccn2c1C(=O)N[C@H]1CC[C@H](O)CC1 [Example 42, (rac)-8-[(2,6-difluorobenzyl)oxy]-N-(trans-4-hydroxycyclohexyl)-2-methylimidazo[1,2-a]-pyridine-3-carboxamide] | 1
Cc1nc2c(OCc3c(F)cccc3F)cccn2c1C(=O)NCCC(C)O (racemic) [Example 28, (rac)-8-[(2,6-difluorobenzyl)oxy]-N-(3-hydroxybutyl)-2-methylimidazo[1,2-a]pyridine-3-carboxamide] | 0.65
Cc1cc(OCCC(C)C)c2nc(C)c(C(=O)NC(CCCC(F)(F)F)C(C)(C)O)n2c1 (single isomer, unassigned; ent-2) [Example 168, ent-2,6-Dimethyl-8-(3-methylbutoxy)-N-(7,7,7-trifluoro-2-hydroxy-2-methylheptan-3-yl)imidazo-[1,2-a]pyridine-3-carboxamide] | 3
Cc1nc2c(OCC3CCCCC3)cccn2c1C(=O)NCCO [Example 76, 8-(cyclohexylmethoxy)-N-(2-hydroxyethyl)-2-methylimidazo[1,2-a]pyridine-3-carboxamide formate] | 0.3
CCCC[C@@H](NC(=O)c1c(C)nc2c(OCc3c(F)cccc3F)cccn12)C(C)O (stereo partly drawn) [Example 140, 8-[(2,6-Difluorobenzyl)oxy]-N-[(3R)-2-hydroxyheptan-3-yl]-2-methylimidazo[1,2-a]pyridine-3-carboxamide] | 0.03
Cc1nc2c(OCc3c(F)cccc3F)cccn2c1C(=O)N[C@@H](CO)C(C)(C)C [Example 35, 8-[(2,6-difluorobenzyl)oxy]-N-[(2R)-1-hydroxy-3,3-dimethylbutan-2-yl]-2-methylimidazo[1,2-a]-pyridine-3-carboxamide] | 0.3
